Experiments:
[1] = tested on: RhlR; experiment: rhlI-gfp reporter antagonist assay, PAO-JP2 (prhlI-LVAgfp); format: cell-based, P. aeruginosa; details: 50 μM compound, competing against 1 μM AI1 and 10 μM AI2
Protocol: Each compound in the library was tested for antagonist activity using the same reporter strain, PAO-JP2 (plasI-LVAgfp) (de Kievit et al., Appl. Environ. Microbiol. 67:865-1873 (2001), which is hereby incorporated by reference in its entirety) to find compounds that could compete against AI1 and reduce GFP expression. The methods were the same as described in Example 2 (GFP Reporter Assay), except that 1 μM AI1 was added to each well in combination with the library compound. The fluorescence/OD600 of each compound competing against AI1 was reported relative to the fluorescence/OD600 of the positive control of AI1 alone, which was set to 1. When strain PAO-JP2 (prhlI-LVAgfp) was used, the positive control was 1 μM AI1 and 10 μM AI2.
3- oxo-C12-D10 was synthesized in solution phase, where the natural side chain was coupled with D10 and purified by chromatography. To determine if the same structural motif can be applied to inhibition of the RhlR-AI2 interaction, C4-D10 was also synthesized. Assays were performed with both the lasI-gfp reporter PAO-JP2 (plasI-LVAgfp) and an RhlR-AI2 controlled rhlI-gfp reporter, PAO-JP2 (prhlI-LVAgfp) (FIGS. 10A-C) (de Kievit et al., Appl. Environ. Microbiol. 67:865-1873 (2001), which is hereby incorporated by reference in its entirety).
(§1) Reporter strains were grown overnight in LB plus 300 μg/ml carbenicillin at 37° C. and diluted to an OD600 of 0.1. Following an incubation of 1 hour, 200 μl of cell culture was added to individual wells of a 96 well plate containing appropriate amount of test compound(s). Plates were incubated for 6 hours and then scanned for fluorescence emission with a Molecular Imager (488 nm excitation and 695 nm bandpass filter). Fluorescence was quantified with ImageQuant software.
Next the ability of 2 and 3 to inhibit the rhlI-gfp reporter strain PAO-JP2 (prhlI-LVAgfp) was tested, since this expression is also AI1-dependent.

[2] = tested on: PAO1 (pTdK-GFP) biofilm; experiment: static biofilm assay, PAO1 (pTdK-GFP); format: cell-based, P. aeruginosa
Protocol: (§2) Compound 3 was tested for its effect on biofilm development in a 24-hour assay that looks at the early stages of biofilm formation. […] Cultures were grown at 37° C. with shaking for 30 minutes, and then allowed to sit at 37° C. for an additional 23.5 hours. Coverslips were then rinsed and placed on slides for visualization using an MRC1024 Laser Scanning Microscope (BioRad) with a Nikon Fluor-60X oil emersion objective lens (NA=1.4), 488 nm Argon Laser and OG515 filter.
The same assay was run with strain PAO-1 (pTdK-GFP), and no exogenous autoinducers were added. […] The above results provide additional evidence that compound 3 interferes with QS signaling and reduces the production of important virulence factors.

[3] = tested on: PAO-JP2 (pTdK-GFP) biofilm; experiment: static biofilm assay, PAO-JP2 (pTdK-GFP); format: cell-based, P. aeruginosa; details: PAO-JP2 (pTdK-GFP) with exogenous AIs, 24-hour static assay
Protocol: as §2

[4] = tested on: P. aeruginosa; experiment: cell growth in the reporter assay; format: cell-based; details: concentrations up to 400 μM
Protocol: Based on the above hypothesis, a competition assay of 2 and 3 against AI1, using strain PAO-JP2 (plasI-LVAgfp), was performed. […] It should be noted that this inhibition experiment was performed with competition against 1 μM AI1, a concentration typically produced by wild type P. aeruginosa (Pearson et al., Proc. Natl Acad. Sci. USA 92:1490-1494 (1995), which is hereby incorporated by reference in its entirety). […] It should also be noted that cell growth was not affected by the addition of 2 or 3 at concentrations up to 400 μM. Thus, it appears that compounds 2 and 3 act as specific inhibitors of QS controlled promoters. Compound 6 was also tested for its ability to compete against AI2, but no inhibition of the rhlI-gfp reporter gene was seen.

[5] = tested on: pyocyanin; experiment: pyocyanin assay, strain PAO-JP2; format: cell-based, P. aeruginosa PAO-JP2; details: PAO-JP2, 25 μM each of AI1 and AI2, 18 hours
Protocol: (§3) For the pyocyanin assay, cells were grown overnight in LB then washed in fresh media and diluted to an OD600 of 0.05. This culture was grown for 3-4 hours to mid-log phase (OD600 of 0.3-0.5), then diluted to an OD600 of 0.05, and aliquoted to test tubes containing an appropriate amount of test compound(s). Following 18 hours of growth, pyocyanin was extracted from filtered culture supernatants and quantified using standard methods (Essar et al., J. Bacteriol. 172:884-900 (1990), which is hereby incorporated by reference in its entirety).

[6] = target: T1, LasR (Pseudomonas aeruginosa, UniProt P25084); experiment: lasI-gfp reporter antagonist (competition against AI1) assay, PAO-JP2 (plasI-LVAgfp); format: cell-based, P. aeruginosa; details: 100-fold excess concentration over AI1 (1 μM AI1)
T1 construct: endogenous in cells; host or cells: P. aeruginosa PAO-JP2 (lasI, rhlI) harboring plasI-LVAgfp
Protocol: P. aeruginosa strain PAO-JP2 (lasI, rhlI) (Rahme et al., Science 268:1899-1902 (1995), which is hereby incorporated by reference in its entirety) harboring plasI-LVAgfp (Pearson et al., Proc. Natl Acad. Sci. USA 91:197-201 (1994), which is hereby incorporated by reference in its entirety) was grown at 37° C. in LB with 300 μg/ml carbenicillin. For agonist assays, an overnight culture was diluted to an OD600 of 0.1 and transferred to wells of a 96-well plate on which test compounds had previously been added and dried. The final concentration of each analog tested was roughly 400 μM, although this is an overestimate due to purity issues. Cells were then incubated for 6 hours at 37° C. with vigorous shaking. GFP expression was detected with a Molecular Imager (BioRad) (488 nm excitation and 695 nm bandpass filter) and quantified with ImageQuant software. The OD600 of cultures was determined to normalize GFP expression to cell density.
The methods were the same as described in Example 2 (GFP Reporter Assay), except that 1 μM AI1 was added to each well in combination with the library compound. The fluorescence/OD600 of each compound competing against AI1 was reported relative to the fluorescence/OD600 of the positive control of AI1 alone, which was set to 1. When strain PAO-JP2 (prhlI-LVAgfp) was used, the positive control was 1 μM AI1 and 10 μM AI2. Eight compounds that inhibited reporter gene expression by greater than 50% were identified (see, e.g., FIG. 6).
as §1

[7] = tested on: pyocyanin; experiment: pyocyanin assay, wild type strain PAO1; format: cell-based, P. aeruginosa PAO1; details: wild type PAO1, no AIs added
Protocol: as §3

T1 sequence (P25084 whole entry): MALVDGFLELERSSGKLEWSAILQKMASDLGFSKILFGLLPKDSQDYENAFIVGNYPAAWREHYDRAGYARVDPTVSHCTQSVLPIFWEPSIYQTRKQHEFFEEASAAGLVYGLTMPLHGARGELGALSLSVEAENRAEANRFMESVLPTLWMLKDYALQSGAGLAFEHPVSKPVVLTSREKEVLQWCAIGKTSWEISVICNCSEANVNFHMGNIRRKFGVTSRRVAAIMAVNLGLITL

For CCCCCCCCCC(=O)CC(=O)NC1CCCCC1=O (racemic) [Compound 3, N-(2-oxocyclohexyl)-3-oxododecanamide], the “inhibition of GFP expression (rhlI-gfp)” value [1] was “greater than 60%”, the “effect on biofilm morphology” value ([2]; wild type PAO1) was “noticeable difference in biofilm morphology” and the “effect on biofilm formation” value ([2]; wild type PAO1, no exogenous autoinducers) was “less obvious”. For the same compound, the “effect on biofilm formation” value [3] was “completely inhibited”, the “effect on cell growth” value [4] was “not affected” and the “effect on pyocyanin production” value [5] was “nearly complete inhibition”. For the same compound, the “inhibition of GFP expression (lasI-gfp)” value [6] was 35% and the “effect on pyocyanin production” value [7] was “very similar inhibitory effect”.

Source: patent US7498292B2, “Combinatorial libraries of autoinducer analogs, autoinducer agonists and antagonists, and methods of use thereof” (The Research Foundation of State University of New York, priority 2002, dated 2009)
